From the supplement of paper PMC10307832

Tests used:
Test in all cases: relative viability (nuclei count vs DMSO), 5 days (fraction); higher = more cells survive
[1] = compound: N=C1NC(=O)/C(=C/c2ccc(O)cc2)S1 [Mirin] + CS(=O)(=O)N1CCN(Cc2cc3nc(-c4cccc5[nH]ncc45)nc(N4CCOCC4)c3s2)CC1 [Pictilisib] (partner 1 µM)
Procedure, shortened: (§1)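 Relative viability was taken as the ratio of nuclei in treated wells to nuclei in vehicle wells. Lung cancer cell lines in 1536-well plates received compounds by pin tool one day after seeding, either one drug alone or a fixed anchor-drug dose plus five library-drug doses (not always all listed) in √10 steps. Nuclei were counted on 4× images after 5 days of treatment, and values are medians of duplicate plates.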

[2] = compound: CCn1c(-c2nonc2N)nc2cnc(Oc3cccc(NC(=O)c4ccc(OCCN5CCOCC5)cc4)c3)cc21 + Nc1ncn([C@H]2C[C@H](O)[C@@H](CO)O2)c(=O)n1 [Decitabine] (partner 2 µM)
Procedure, shortened: as §1

[3] = compound: CCn1c(-c2nonc2N)nc2cnc(Oc3cccc(NC(=O)c4ccc(OCCN5CCOCC5)cc4)c3)cc21 + CCNC(=O)c1noc(-c2cc(C(C)C)c(O)cc2O)c1-c1ccc(CN2CCOCC2)cc1 [Luminespib] (partner 0.01 µM)
Procedure, shortened: as §1

[4] = compound: N=C1NC(=O)/C(=C/c2ccc(O)cc2)S1 [Mirin] + O=C(CCCCCCC(=O)Nc1ccccc1)NO [Vorinostat] (partner 1 µM)
Procedure, shortened: as §1

UMC-11 gave a relative viability ([1]; first compound 0.25 µM) of 0.798, a relative viability ([1]; first compound 0.7906 µM) of 0.164 and a relative viability ([1]; first compound 2.5 µM) of 0.849. It also gave a relative viability ([1]; first compound 7.906 µM) of 0.509, a relative viability ([1]; first compound 25 µM) of 0.4 and a relative viability ([2]; first compound 0.04 µM) of 0.596. The relative viability ([2]; first compound 0.1265 µM) was 0.528, the relative viability ([2]; first compound 0.4 µM) was 0.423 and the relative viability ([2]; first compound 1.265 µM) was 0.125. The relative viability ([2]; first compound 4 µM) was 0.269, the relative viability ([3]; first compound 0.04 µM) was 1.03 and the relative viability ([3]; first compound 0.1265 µM) was 0.915. For the same cell line, the relative viability ([3]; first compound 0.4 µM) was 0.83, the relative viability ([3]; first compound 1.265 µM) was 0.291 and the relative viability ([3]; first compound 4 µM) was 0.222. It also gave a relative viability ([4]; first compound 0.25 µM) of 0.411, a relative viability ([4]; first compound 0.7906 µM) of 0.362 and a relative viability ([4]; first compound 2.5 µM) of 0.399. It also gave a relative viability ([4]; first compound 7.906 µM) of 0.305 and a relative viability ([4]; first compound 25 µM) of 0.266.
